US10799507B2, “5-(7H-pyrrolo[2,3-d]pyrimidin-4-yl)-5-azaspiro[2.5]octane-8-carboxylic acid derivatives as novel JAK kinase inhibitors” (LEO Pharma A/S, priority 2017, dated 2020)

Legend:
[1] = in vitro metabolic stability in human liver microsomes; format: in vitro ADME; settings: human, liver microsomes, 0.5 μM compound, 0.5 mg/mL microsomes, NADPH, 40 min, 37° C.; read-out: Human liver microsome Clapp (apparent intrinsic clearance)
Description: To assess the in vitro metabolic stability, the compounds (0.5 μM) were incubated in duplicates with human liver microsomes (0.5 mg/mL) in phosphate buffer and NADPH, in 96-well plates for 40 min (37° C.), using a liquid handling robot (Hamilton Microlab Star). Sample aliquots were taken at 0, 5, 10, 20 and 40 min, and dispensed into cold acetonitrile, in order to stop the reactions. The plates were centrifuged for 30 minutes before the samples were analyzed using liquid chromatography coupled to a time-of-flight mass spectrometer (AB Sciex API5600). The compound depletion over time was used to estimate the elimination rate constant, from which the apparent intrinsic clearance, Clapp, was calculated and the values are listed in Table 2.

[2] = biological target: JAK2 (Homo sapiens (Human), UniProt O60674); assay: JAK kinase assay (HTRF), JAK2; format: biochemical; settings: catalytic domain, ATP at Km (4 μM)
Outline: (§1)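 Catalytic-domain human JAK1 (GST-tagged, aa 850-1154) or His-tagged JAK2, baculovirus-expressed, phosphorylated 1 µM biotinylated TK peptide at Km ATP (JAK1 7 µM, 10 mM MgCl2, 50 nM SEB; JAK2 4 µM, 5 mM MgCl2) in pH 7.0 Hepes, 20-30 min RT. EDTA stop; overnight streptavidin-XL665/cryptate HTRF read.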

[3] = biological target: JAK3 (Homo sapiens (Human), UniProt P52333); assay: JAK kinase assay (HTRF), JAK3; format: biochemical; settings: catalytic domain, ATP at Km (2 μM)
Outline: (§2)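 HTRF read-out of biotinylated TK peptide phosphorylation (1 μM) after a 20-30 min RT reaction in pH 7.0 Hepes buffer with 5 mM MgCl2 and 0.75% DMSO. JAK3 (His-tagged catalytic domain) used 2 μM ATP; TYK2 (GST-tagged, aa 871-1187) used 13 μM ATP plus 50 nM SEB, each at ATP Km.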

[4] = biological target: JAK1 (Homo sapiens (Human), UniProt P23458); assay: JAK kinase assay (HTRF), JAK1; format: biochemical; settings: catalytic domain, ATP at Km (7 μM)
Outline: as §1

[5] = biological target: TYK2 (Homo sapiens (Human), UniProt P29597); assay: JAK kinase assay (HTRF), TYK2; format: biochemical; settings: catalytic domain, ATP at Km (13 μM)
Outline: as §2

Chain of JAK1 (P23458 850-1154): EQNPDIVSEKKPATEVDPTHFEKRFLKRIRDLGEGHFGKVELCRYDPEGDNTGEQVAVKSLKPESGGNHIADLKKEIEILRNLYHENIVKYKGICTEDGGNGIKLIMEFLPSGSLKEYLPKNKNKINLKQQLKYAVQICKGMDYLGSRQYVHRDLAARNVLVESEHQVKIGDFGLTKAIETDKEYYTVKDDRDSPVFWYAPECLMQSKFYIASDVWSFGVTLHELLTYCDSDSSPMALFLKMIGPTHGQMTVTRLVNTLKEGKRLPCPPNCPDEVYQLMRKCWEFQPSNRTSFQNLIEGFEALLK
Chain of JAK2 (O60674 849-1124): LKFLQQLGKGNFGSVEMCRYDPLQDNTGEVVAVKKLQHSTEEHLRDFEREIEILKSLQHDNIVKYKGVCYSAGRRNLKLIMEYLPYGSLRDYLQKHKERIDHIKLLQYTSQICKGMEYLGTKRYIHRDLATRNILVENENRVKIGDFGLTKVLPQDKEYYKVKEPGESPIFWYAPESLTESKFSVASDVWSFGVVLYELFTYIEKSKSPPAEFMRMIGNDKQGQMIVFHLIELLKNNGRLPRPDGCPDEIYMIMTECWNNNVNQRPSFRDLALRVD
Chain of TYK2 (P29597 871-1187): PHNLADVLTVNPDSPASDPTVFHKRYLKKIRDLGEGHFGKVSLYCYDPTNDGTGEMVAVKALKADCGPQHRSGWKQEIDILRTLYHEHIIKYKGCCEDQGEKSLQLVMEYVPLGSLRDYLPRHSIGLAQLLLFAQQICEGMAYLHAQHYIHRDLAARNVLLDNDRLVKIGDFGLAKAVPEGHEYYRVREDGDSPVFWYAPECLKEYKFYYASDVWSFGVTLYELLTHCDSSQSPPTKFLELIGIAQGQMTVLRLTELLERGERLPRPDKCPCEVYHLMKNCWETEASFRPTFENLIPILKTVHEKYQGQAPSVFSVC
Chain of JAK3 (P52333 822-1111): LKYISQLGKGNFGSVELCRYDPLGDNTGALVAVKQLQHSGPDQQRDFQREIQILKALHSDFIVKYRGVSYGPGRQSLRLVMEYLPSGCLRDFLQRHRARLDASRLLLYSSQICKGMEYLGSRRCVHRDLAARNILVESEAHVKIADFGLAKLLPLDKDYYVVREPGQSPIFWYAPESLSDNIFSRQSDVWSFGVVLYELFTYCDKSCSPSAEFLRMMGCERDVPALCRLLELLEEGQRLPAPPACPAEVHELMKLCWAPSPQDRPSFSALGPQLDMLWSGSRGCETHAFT

Row | Structure (SMILES) | CLint scaled at 0.5 μM [1] [mL/min/kg] | EC50 [2] [nM] | EC50 [3] [nM] | EC50 [4] [nM] | EC50 [5] [nM]
1 | O=C(N[C@@H](CO)[C@@H](O)c1ccc(F)cn1)[C@H]1CCN(c2ncnc3[nH]ccc23)CC12CC2 [Example 105, (8S)-N-[(1S,2R)-2-(5-fluoro-2-pyridyl)-2-hydroxy-1-(hydroxymethyl)ethyl]-5-(7H-pyrrolo[2,3-d]pyrimidin-4-yl)-5-azaspiro[2.5]octane-8-carboxamide] | 15 | 11.2 | 56 | 10.2 | 153
2 | C[C@H](NC(=O)C1CCN(c2ncnc3[nH]ccc23)CC12CC2)c1cccc(C#N)c1 (stereo partly drawn) [Example 86, N-[(1S)-1-(3-cyanophenyl)ethyl]-5-(7H-pyrrolo[2,3-d]pyrimidin-4-yl)-5-azaspiro[2.5]octane-8-carboxamide] | > 200 | 11.3 | 38 | 7.1 | 47.7
3 | Cc1cc([C@@H](O)CNC(=O)[C@H]2CCN(c3ncnc4[nH]ccc34)CC23CC3)ncc1F (single isomer, unassigned) [Example 110] | 195 | 26.3 | 75.3 | 11.1 | 188
4 | N#CCC1(COC(=O)[C@H]2CCN(c3ncnc4[nH]ccc34)CC23CC3)CC1 [Example 163, [1-(cyanomethyl)cyclopropyl]methyl (8S)-5-(7H-pyrrolo[2,3-d]pyrimidin-4-yl)-5-azaspiro[2.5]octane-8-carboxylate] | > 200 | 3.8 | 13 | 3.1 | 25
5 | O=C(N[C@@H](CO)c1ccc(F)cc1)[C@H]1CCN(c2ncnc3[nH]ccc23)CC12CC2 [Example 17, (8S)-N-[(1R)-1-(4-fluorophenyl)-2-hydroxy-ethyl]-5-(7H-pyrrolo[2,3-d]pyrimidin-4-yl)-5-azaspiro[2.5]octane-8-carboxamide] | 43 | 3 | 5.7 | 1 | 20.5
6 | O=C(OCC1(CO)CC1)[C@H]1CCN(c2ncnc3[nH]ccc23)CC12CC2 [Example 156, [1-(hydroxymethyl)cyclopropyl]methyl (8S)-5-(7H-pyrrolo[2,3-d]pyrimidin-4-yl)-5-azaspiro[2.5]octane-8-carboxylate] | 94 | 5.4 | 20.4 | 4 | 30
7 | O=C(NCc1ccccc1)C1CCN(c2ncnc3[nH]ccc23)CC12CC2 (stereo not drawn) [Example 95, N-benzyl-5-(7H-pyrrolo[2,3-d]pyrimidin-4-yl)-5-azaspiro[2.5]octane-8-carboxamide] | 135 | 17.9 | 31.6 | 8.6 | 502
8 | C[C@@](CO)(NC(=O)[C@H]1CCN(c2ncnc3[nH]ccc23)CC12CC2)c1ccc(C#N)cc1 [Example 28, (8S)-N-[(1R)-1-(4-cyanophenyl)-2-hydroxy-1-methyl-ethyl]-5-(7H-pyrrolo[2,3-d]pyrimidin-4-yl)-5-azaspiro[2.5]octane-8-carboxamide] | 132 | 5.5 | 9.8 | 1.4 | 55.8
9 | C[C@H](NC(=O)[C@H]1CCN(c2ncnc3[nH]ccc23)CC12CC2)[C@H](O)c1ccc(F)cc1 [Example 45, (8S)-N-[(1S,2R)-2-(4-fluorophenyl)-2-hydroxy-1-methyl-ethyl]-5-(7H-pyrrolo[2,3-d]pyrimidin-4-yl)-5-azaspiro[2.5]octane-8-carboxamide] | > 200 | 4.6 | 15.7 | 3.1 | 37.9
10 | O=C(NCC1(CO)CCCC1)C1CCN(c2ncnc3[nH]ccc23)CC12CC2 (stereo not drawn) [Example 58, N-[[1-(hydroxymethyl)cyclopentyl]methyl]-5-(7H-pyrrolo[2,3-d]pyrimidin-4-yl)-5-azaspiro[2.5]octane-8-carboxamide] | 143 | 13 | 30.3 | 4.1 | 142
11 | O=C(NC[C@H](O)C1CCOCC1)[C@H]1CCN(c2ncnc3[nH]ccc23)CC12CC2 [Example 10, (8S)-N-[(2R)-2-hydroxy-2-tetrahydropyran-4-yl-ethyl]-5-(7H-pyrrolo[2,3-d]pyrimidin-4-yl)-5-azaspiro[2.5]octane-8-carboxamide] | 28 | 2.9 | 11.7 | 0.8 | 10.8
12 | O=C(N[C@@H](CO)c1ccc(F)cc1F)[C@H]1CCN(c2ncnc3[nH]ccc23)CC12CC2 [Example 34, (8S)-N-[(1R)-1-(2,4-difluorophenyl)-2-hydroxy-ethyl]-5-(7H-pyrrolo[2,3-d]pyrimidin-4-yl)-5-azaspiro[2.5]octane-8-carboxamide] | 69 | 3.7 | 6.4 | 1.9 | 32.9
13 | C[C@H](NC(=O)C1CCN(c2ncnc3[nH]ccc23)CC12CC2)c1ccc(C#N)cc1 (stereo partly drawn) [Example 21, N-[(1S)-1-(4-cyanophenyl)ethyl]-5-(7H-pyrrolo[2,3-d]pyrimidin-4-yl)-5-azaspiro[2.5]octane-8-carboxamide] | 170 | 2.5 | 7.7 | 1.1 | 52.1
14 | O=C(N[C@@H](CO)c1ccccc1)C1CCN(c2ncnc3[nH]ccc23)CC12CC2 (stereo partly drawn) [Example 69, N-[(1R)-2-hydroxy-1-phenyl-ethyl]-5-(7H-pyrrolo[2,3-d]pyrimidin-4-yl)-5-azaspiro[2.5]octane-8-carboxamide] | 44 | 12 | 29.1 | 5.1 | 298
15 | C[C@@](CO)(NC(=O)[C@H]1CCN(c2ncnc3[nH]ccc23)CC12CC2)c1ccc(C#N)cn1 [Example 57, (8S)-N-[(1R)-1-(5-cyano-2-pyridyl)-2-hydroxy-1-methyl-ethyl]-5-(7H-pyrrolo[2,3-d]pyrimidin-4-yl)-5-azaspiro[2.5]octane-8-carboxamide] | 39 | 9 | 21.3 | 4.1 | 193
16 | C[C@H](NC(=O)[C@H]1CCN(c2ncnc3[nH]ccc23)CC12CC2)c1ccc(C#N)cc1 [Example 22, (8S)-N-[(1S)-1-(4-cyanophenyl)ethyl]-5-(7H-pyrrolo[2,3-d]pyrimidin-4-yl)-5-azaspiro[2.5]octane-8-carboxamide] | 123 | 3.2 | 7.1 | 1.2 | 43.9
17 | O=C(NC[C@H](O)C1CCCC1)[C@H]1CCN(c2ncnc3[nH]ccc23)CC12CC2 [Example 11, (8S)-N-[(2R)-2-cyclopentyl-2-hydroxy-ethyl]-5-(7H-pyrrolo[2,3-d]pyrimidin-4-yl)-5-azaspiro[2.5]octane-8-carboxamide] | 148 | 2.1 | 6.7 | 0.8 | 18.2
18 | O=C(NCC1(O)CCCC1)[C@H]1CCN(c2ncnc3[nH]ccc23)CC12CC2 [Example 49, (8S)-N-[(1-hydroxycyclopentyl)methyl]-5-(7H-pyrrolo[2,3-d]pyrimidin-4-yl)-5-azaspiro[2.5]octane-8-carboxamide] | 35 | 15.1 | 26.1 | 3.4 | 43.4
